Experimental data from publication PMC10218498, “Exploring BenzylethoxyAryl Urea Scaffolds for Multitarget Immunomodulation Therapies” (International Journal of Molecular Sciences, 2023).

Legend:
[1] = test system: human microvessel endothelial cells (HMEC-1); test: MTT cell proliferation assay, HMEC-1; assay type: cell-based; details: 48 h of treatment
Protocol: This assay allowed us to establish the corresponding IC50 values (expressed as the concentration, in μM, at which 50% of cell viability is achieved), shown in Table 1.
In 96-well plates, 5 × 10^3 (HT-29, MCF-7, A549, HMEC-1, Jurkat, and HEK-293) cells per well were incubated with serial dilutions of the tested compounds in a total volume of 100 μL of their respective growth media. The 3-(4,5-dimethylthiazol-2-yl)-2,5-diphenyltetrazolium bromide (MTT; Sigma Chemical Co.) dye reduction assay in 96-well microplates was used. After 2 days of incubation (37 °C, 5% CO2 in a humid atmosphere), 10 μL of MTT (5 mg/mL in phosphate-buffered saline, PBS) was added to each well, and the plate was incubated for a further 3 h (37 °C). After that, the supernatant was discarded and replaced by 100 µL of DMSO to dissolve formazan crystals. The absorbance was then read at 550 nm by spectrophotometry. For all concentrations of compound, cell viability was expressed as the percentage of the ratio between the mean absorbance of treated cells and the mean absorbance of untreated cells. Three independent experiments were performed, and the IC50 values (i.e., concentration half inhibiting cell proliferation) were graphically determined using GraphPad Prism 4 software.

THP-1 cells = test: Immune cell viability in monoculture and co-cultures with HT-29 by flow cytometry; assay type: cell-based, human; details: for THP-1 living cells compared to control (%), Monocult. THP-1: THP-1 monoculture, 20 μM; for THP-1 living cells compared to control (%), 1:5 HT-29/THP-1, 24 h / THP-1 living cells compared to control (%), 1:5 HT-29/THP-1, 48 h: co-culture 1:5 HT-29/THP-1, 20 μM; for THP-1 living cells compared to control (%), 2:1 HT-29/THP-1, 24 h / THP-1 living cells compared to control (%), 2:1 HT-29/THP-1, 48 h: co-culture 2:1 HT-29/THP-1, 20 μM
Protocol: From the previous study, we also determined the effect of the selected compounds on the human monocyte cells THP-1 in the described co-cultures. We also assessed the effect of the compounds on the cell viability of monocultured THP-1.
On the other hand, to study the effect of the compounds on the cell viability in co-culture with THP-1 cells, 10^5 or 2 × 10^5 of the HT-29 cells line per well were seeded and incubated for 24 h, then the medium was changed by one cell culture medium supplemented with IFN-γ (10 ng/mL; human, Invitrogen®, Waltham, MA, USA) and containing 5 × 10^5 or 105, respectively, of THP-1 per well and the corresponding compound at 20 μM or DMSO for the positive control. After 24 h/48 h of incubation, supernatants were collected to determine THP-1 living cells. Additionally, stain cancer cells were collected with trypsin. Both types of suspension cells were fixed with 4% in PBS paraformaldehyde and counted by flow cytometry.

CD80 = CD80 relative quantification by flow cytometry in co-cultured THP-1; assay type: cell-based, human; details: 20 μM, related to non-treated cells
Protocol: Reducing the expression of CD11b has become a promising target for immune modulation in anti-cancer therapies. For that reason, we decided to study the effect of our compounds on CD11b in THP-1 cells co-cultured with HT-29. We also determine the relative amount of CD80, a common surface marker for monocytes. This study was performed on the collected cell culture from each well and gating living THP-1 cell population.
To study the effect of the compounds on every biological target in co-cultured THP-1 immune cells with cancer cell line HT-29, the compounds were incubated for 24 h/48 h as described before.
To detect membrane CD11b and CD80, after the cell incubation, suspended THP-1 was collected from the cell culture of each sample well, fixed with 4% in PBS paraformaldehyde, and stained with FITC Mouse monoclonal Anti-Human CD80 (Sigma-Aldrich, S. Louis, MO, USA, SAB4700142) and Alexa Fluor® 647 Rabbit monoclonal Anti-CD11b (Merck, S. Louis, MO, USA, #MABF366).

PD-L1 = PD-L1 (Homo sapiens, UniProt Q9NZQ7); test: PD-L1 relative quantification by flow cytometry in MCF-7; assay type: cell-based; design: endogenous in cells; host or cells: MCF-7; details: MCF-7, 20 µM, 24 h; for % PD-L1 Memb. / % PD-L1 Total: control = 100
PD-L1, sequence (Q9NZQ7 19-290): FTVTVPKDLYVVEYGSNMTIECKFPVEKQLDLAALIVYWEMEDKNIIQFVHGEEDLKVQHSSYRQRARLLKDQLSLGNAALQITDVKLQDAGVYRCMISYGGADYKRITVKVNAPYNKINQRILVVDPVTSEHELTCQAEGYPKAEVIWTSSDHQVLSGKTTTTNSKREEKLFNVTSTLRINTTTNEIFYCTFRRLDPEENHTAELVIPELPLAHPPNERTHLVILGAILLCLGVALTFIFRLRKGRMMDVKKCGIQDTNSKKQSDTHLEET
Protocol: In view of the good results obtained for these selected compounds, we decided to extend the study to a third cancer cell line, MCF-7 (Human breast cancer adenocarcinoma). First, we determined the IC50 values of the derivatives and their SI indexes (see Table 4). Then, we determined the effect of the selected compounds on the biological targets, PD-L1 and VEGFR-2, by flow cytometry. […] As usually, the assay was performed at a concentration of 20 µM for 24 h.
(§1) To study the effect of the compounds on every biological target in cancer cell lines, the compounds were used at 20 µM dose.
(§2) For the assay, 10^5 cells per well were incubated for 24 h with the corresponding dose of the tested compound in a total volume of 500 μL of their growth media.
On the one hand, to detect total PD-L1 and VEGFR-2, after the cell treatments, they were collected and fixed with 4% in PBS paraformaldehyde. After fixation, a treatment with 0.5% in PBS TritonTM X-100 was performed, and finally, cells were stained with FITC Mouse monoclonal Anti-Human VEGFR-2 (ab184903) and Alexa Fluor® 647 Rabbit monoclonal Anti-PD-L1 (ab215251).
(§3) On the other hand, to detect membrane PD-L1 and VEGFR-2, the process was the same, avoiding the treatment with 0.5% in PBS TritonTM X-100 step.

VEGFR-2 [2] = molecular target: T1, VEGFR-2 (Homo sapiens, UniProt P35968); test: VEGFR-2 relative quantification by flow cytometry in A-549; assay type: cell-based; design: Both membrane and total PD-L1 and VEGFR-2 were relatively determined using DMSO-treated cells as a negative control; endogenous in cells; host or cells: A-549; details: A-549, 20 µM, 24 h, relative to DMSO control = 100
T1 sequence (P35968 20-1356): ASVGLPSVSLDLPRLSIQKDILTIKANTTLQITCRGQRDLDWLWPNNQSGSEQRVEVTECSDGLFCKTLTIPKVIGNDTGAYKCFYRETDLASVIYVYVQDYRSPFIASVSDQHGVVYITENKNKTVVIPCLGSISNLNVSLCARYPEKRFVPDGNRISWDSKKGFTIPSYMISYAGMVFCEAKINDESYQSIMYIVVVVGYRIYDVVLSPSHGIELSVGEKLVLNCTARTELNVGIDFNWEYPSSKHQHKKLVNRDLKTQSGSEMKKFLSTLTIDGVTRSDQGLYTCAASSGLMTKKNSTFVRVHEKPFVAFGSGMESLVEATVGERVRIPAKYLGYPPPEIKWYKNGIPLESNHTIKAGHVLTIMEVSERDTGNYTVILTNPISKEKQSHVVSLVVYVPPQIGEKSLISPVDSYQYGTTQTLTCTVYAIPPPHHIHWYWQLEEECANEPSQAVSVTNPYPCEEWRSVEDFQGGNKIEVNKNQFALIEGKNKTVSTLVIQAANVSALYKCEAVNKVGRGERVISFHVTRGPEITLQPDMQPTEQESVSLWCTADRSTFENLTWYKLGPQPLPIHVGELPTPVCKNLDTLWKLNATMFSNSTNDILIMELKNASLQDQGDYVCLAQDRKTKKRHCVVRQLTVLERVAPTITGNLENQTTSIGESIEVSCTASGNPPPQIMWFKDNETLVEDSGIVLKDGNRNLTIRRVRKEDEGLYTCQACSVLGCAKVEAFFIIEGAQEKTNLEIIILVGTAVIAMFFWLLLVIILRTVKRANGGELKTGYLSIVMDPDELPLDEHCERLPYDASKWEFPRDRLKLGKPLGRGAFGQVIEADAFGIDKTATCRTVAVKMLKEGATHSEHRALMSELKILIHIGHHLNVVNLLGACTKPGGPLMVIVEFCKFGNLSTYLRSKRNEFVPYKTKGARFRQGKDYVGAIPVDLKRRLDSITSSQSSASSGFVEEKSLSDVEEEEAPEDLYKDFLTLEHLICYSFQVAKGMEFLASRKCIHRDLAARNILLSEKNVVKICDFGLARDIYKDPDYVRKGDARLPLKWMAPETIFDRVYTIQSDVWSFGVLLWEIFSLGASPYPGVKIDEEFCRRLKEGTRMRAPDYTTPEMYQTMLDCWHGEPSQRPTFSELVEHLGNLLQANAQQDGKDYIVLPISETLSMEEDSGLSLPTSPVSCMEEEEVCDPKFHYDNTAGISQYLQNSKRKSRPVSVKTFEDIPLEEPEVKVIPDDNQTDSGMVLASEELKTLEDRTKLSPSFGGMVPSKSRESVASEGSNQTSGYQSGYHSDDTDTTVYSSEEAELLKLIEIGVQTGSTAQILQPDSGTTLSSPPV
Protocol: For these assays, cells were incubated for 24 h in the presence of the corresponding compounds at 20 µM concentration.
as §1, §2
(§4) On the one hand, to detect total PD-L1 and VEGFR-2, after the cell treatments, they were collected and fixed with 4% in PBS paraformaldehyde.
as §3

VEGFR-2 [3] = molecular target: T1, VEGFR-2; test: VEGFR-2 relative quantification by flow cytometry in MCF-7; assay type: cell-based; design: Both membrane and total PD-L1 and VEGFR-2 were relatively determined using DMSO-treated cells as a negative control; endogenous in cells; host or cells: MCF-7; details: MCF-7, 20 µM, 24 h, control = 100
Protocol: Then, we determined the effect of the selected compounds on the biological targets, PD-L1 and VEGFR-2, by flow cytometry. […] As usually, the assay was performed at a concentration of 20 µM for 24 h.
as §1, §2, §4, §3

[4] = membrane THP-1, 1:5 HT-29/THP-1, 24 h
[5] = membrane THP-1, 2:1 HT-29/THP-1, 48 h

| % PD-L1 Memb. (PD-L1) [%] | % PD-L1 Total (PD-L1) [%] | Total VEGFR-2 (%) (VEGFR-2 [2]) | % VEGFR-2 Memb. (VEGFR-2 [3]) [%] | % VEGFR-2 Total (VEGFR-2 [3]) [%] | inhibition at 20 µM (PD-L1; MCF7, read-out: inhibition rate for total PD-L1) [%] | Compound | IC50 [1] [µM] | THP-1 living cells compared to control (%), Monocult. THP-1 (THP-1 cells) [%] | THP-1 living cells compared to control (%), 1:5 HT-29/THP-1, 24 h (THP-1 cells) [%] | THP-1 living cells compared to control (%), 1:5 HT-29/THP-1, 48 h (THP-1 cells) [%] | THP-1 living cells compared to control (%), 2:1 HT-29/THP-1, 24 h (THP-1 cells) [%] | THP-1 living cells compared to control (%), 2:1 HT-29/THP-1, 48 h (THP-1 cells) [%] | % CD80 (CD80; [4]) [%] | % CD80 (CD80; [5]) [%] |
| --- | --- | --- | --- | --- | --- | --- | --- | --- | --- | --- | --- | --- | --- | --- |
| 94 ± 12 | 87 ± 23 | 141 ± 13 | 82 ± 6 | 88 ± 11 | – | COc1ccc(COc2cccc(NC(=O)Nc3ccc(Br)cc3)c2)cc1 [Compound 8] | > 100 | 98 ± 10 | 95 ± 12 | 100 ± 11 | 82 ± 14 | 97 ± 9 | 95 ± 9 | 103 ± 2 |
| 100 ± 7 | 57 ± 15 | 143 ±10 | 81 ± 11 | 83 ± 21 | ~40 | COc1ccc(COc2cccc(NC(=O)Nc3ccc(OC)cc3)c2)cc1 [Compound 11] | > 100 | 103 ± 7 | 105 ± 4 | 94 ± 9 | 66 ± 24 | 102 ± 5 | 102 ± 6 | 103 ± 2 |

The remaining lines, values behind:

| Compound | % PD-L1 Memb. (PD-L1) [%] | % PD-L1 Total (PD-L1) [%] | Total VEGFR-2 (%) (VEGFR-2 [2]) | % VEGFR-2 Memb. (VEGFR-2 [3]) [%] | % VEGFR-2 Total (VEGFR-2 [3]) [%] | inhibition at 20 µM (PD-L1; MCF7, read-out: inhibition rate for total PD-L1) [%] | IC50 [1] [µM] | THP-1 living cells compared to control (%), Monocult. THP-1 (THP-1 cells) [%] | THP-1 living cells compared to control (%), 1:5 HT-29/THP-1, 24 h (THP-1 cells) [%] | THP-1 living cells compared to control (%), 1:5 HT-29/THP-1, 48 h (THP-1 cells) [%] | THP-1 living cells compared to control (%), 2:1 HT-29/THP-1, 24 h (THP-1 cells) [%] | THP-1 living cells compared to control (%), 2:1 HT-29/THP-1, 48 h (THP-1 cells) [%] | % CD80 (CD80; [4]) [%] | % CD80 (CD80; [5]) [%] |
| --- | --- | --- | --- | --- | --- | --- | --- | --- | --- | --- | --- | --- | --- | --- |
| COc1ccc(COc2cccc(NC(=O)Nc3ccc(F)cc3)c2)cc1 [Compound 2] | 81 ± 10 | 62 ± 15 | 97 ± 12 | 91 ± 12 | 72 ± 10 | – | > 100 | 111 ± 13 | 97 ± 7 | 105 ± 4 | 90 ± 28 | 105 ± 1 | 99 ± 5 | 105 ± 1 |
| Cc1c(COc2ccc(CN3CCCCC3C(=O)O)cc2Br)cccc1-c1ccccc1 (centres unmarked) [BMS-8, reference compound] | 88 ± 11 | 197 | 122 ± 13 | 107 ± 4 | 93 | – | – | 99 ± 2 | 94 ± 0 | 93 ± 0 | 101 ± 9 | 97 ± 2 | 101 ± 6 | 101 ± 6 |
| COc1ccc(COc2cccc(NC(=O)Oc3ccccc3)c2)cc1 [Compound 14] | 81 ± 8 | 85 ± 15 | 107 ± 18 | 89 ± 11 | 110 ± 12 | – | > 100 | 127 ± 12 | 93 ± 9 | 97 ± 9 | 81 ± 6 | 109 ± 2 | 99 ± 6 | 102 ± 1 |
